According to BindingDB's records for doi:10.1021/jm010841w (University of Bristol, 2002):
pEC50: −log10 of the molar value.

Key:
[1] = Maximum % effect of standard (DAMGO) was reported against Opioid receptor mu 1
[2] = Maximum percentage effect of standard Opioid receptor delta 1 (Cl-DPDPE)

Structure (SMILES) | pEC50 [1] | pEC50 [2]
Cc1ccc(-c2cn(Cc3ccccc3)c3c2C[C@@]2(O)C4Cc5ccc(O)c6c5[C@@]2(CCN4CC2CC2)[C@H]3O6)cc1 [7-benzyl-18-cyclopropylmethyl-5-(4-methylphenyl)-10-oxa-7,18-diazahexacyclo[9.9.1.01,9.02,17.04,8.015,21]henicosa-4(8),5,11,13,15(21)-pentaene-2,12-diol] | 7.47 | 
CN1CC[C@]23c4c5ccc(O)c4O[C@H]2c2c(c(-c4ccccc4)cn2Cc2ccccc2)C[C@@]3(O)C1C5 [7-benzyl-18-methyl-5-phenyl-10-oxa-7,18-diazahexacyclo[9.9.1.01,9.02,17.04,8.015,21]henicosa-4(8),5,11,13,15(21)-pentaene-2,12-diol] |  | 7.39
